In patent US20140051679A1, “KINASE INHIBITORS AND METHOD OF TREATING CANCER WITH SAME” (UNIVERISTY HEALTH NETWORKS, priority 2011, published 2014):
pIC50: −log10 of the molar value. Like-named read-outs stand apart in the source and are kept apart here.

Legend:
[1] = tested on: HCT116 colon cancer cells; assay: Cell growth inhibition, Sulforhodamine B assay, HCT116; type: cell-based; conditions: 5 days culture, SRB assay, read-out: Cell Line GI50 Range HCT116
Method: Breast cancer cells (MDA-MB-231, MDA-MB-468), colon cancer cells (HCT116, HT29) and ovarian cancer cells (PA-1, OVCAR-3) were seeded (1000 to 4000 in 80 μl per well depending on the cell growth rate) into 96 well plates 24 hours before compound overlay. Compounds were prepared as 10 mM stock solutions in 100% DMSO which were diluted with DMEM (Dulbecco's Modified Eagle's Medium) cell growth Medium (Invitrogen, Burlington, ON, Canada) containing 10% FBS (Fetal Bovine Serum) to concentrations ranging from 50 nM to 250 μM. Aliquots (20 μl) from each concentration were overlaid to 80 μl of the pre-seeded cells in the 96 well plates to make final concentrations of 10 nM to 50 μM. The cells were cultured for 5 days before the Sulforhodamine B assay (SRB) was performed to determine the compound's cell growth inhibition activity.
Sulforhodamine B (purchased from Sigma, Oakville, ON, Canada) is a water-soluble dye that binds to the basic amino acids of the cellular proteins. Thus, colorimetric measurement of the bound dye provides an estimate of the total protein mass that is related to the cell number. the cells are fixed in situ by gently aspirating off the culture media and adding 50 μl ice cold 10% Trichloroacetic Acid (TCA) per well and incubate at 4° C. for 30-60 min, The plates are washed with water five times and allowed to air dry for 5 min. Addition of 50 μl 0.4% (w/v) SRB solution in 1% (v/v) acetic acid to each well and incubatation for 30 min at RT completes the staining reaction. Following staining, plates are washed four times with 1% acetic acid to remove unbound dye and then allowed to air dry for 5 min. The stain is solubilized with 100 μl of 10 mM Tris pH 10.5 per well. Absorbance is read at 570 nm.
The percentage (%) of relative growth inhibition was calculated by comparing to DMSO treated only cells (100%). […] The GI50 was calculated using GraphPad PRISM software (GraphPad Software, Inc., San Diego, Calif., USA).

[2] = tested on: PA-1 ovarian cancer cells; assay: Cell growth inhibition, Sulforhodamine B assay, PA-1; type: cell-based; conditions: 5 days culture, SRB assay, read-out: Cell Line GI50 Range PA-1
[3] = molecular target: T1, human TTK (Homo sapiens, UniProt P33981); assay: TTK inhibition assay (indirect ELISA); type: biochemical; conditions: GST-TTK 0.68 nM, 16 μM ATP; read-out: IC50 Ranges TTK
T1 construct: amino terminal GST fusion of full length human TTK; purchased Invitrogen
T1 sequence (P33981 1-857): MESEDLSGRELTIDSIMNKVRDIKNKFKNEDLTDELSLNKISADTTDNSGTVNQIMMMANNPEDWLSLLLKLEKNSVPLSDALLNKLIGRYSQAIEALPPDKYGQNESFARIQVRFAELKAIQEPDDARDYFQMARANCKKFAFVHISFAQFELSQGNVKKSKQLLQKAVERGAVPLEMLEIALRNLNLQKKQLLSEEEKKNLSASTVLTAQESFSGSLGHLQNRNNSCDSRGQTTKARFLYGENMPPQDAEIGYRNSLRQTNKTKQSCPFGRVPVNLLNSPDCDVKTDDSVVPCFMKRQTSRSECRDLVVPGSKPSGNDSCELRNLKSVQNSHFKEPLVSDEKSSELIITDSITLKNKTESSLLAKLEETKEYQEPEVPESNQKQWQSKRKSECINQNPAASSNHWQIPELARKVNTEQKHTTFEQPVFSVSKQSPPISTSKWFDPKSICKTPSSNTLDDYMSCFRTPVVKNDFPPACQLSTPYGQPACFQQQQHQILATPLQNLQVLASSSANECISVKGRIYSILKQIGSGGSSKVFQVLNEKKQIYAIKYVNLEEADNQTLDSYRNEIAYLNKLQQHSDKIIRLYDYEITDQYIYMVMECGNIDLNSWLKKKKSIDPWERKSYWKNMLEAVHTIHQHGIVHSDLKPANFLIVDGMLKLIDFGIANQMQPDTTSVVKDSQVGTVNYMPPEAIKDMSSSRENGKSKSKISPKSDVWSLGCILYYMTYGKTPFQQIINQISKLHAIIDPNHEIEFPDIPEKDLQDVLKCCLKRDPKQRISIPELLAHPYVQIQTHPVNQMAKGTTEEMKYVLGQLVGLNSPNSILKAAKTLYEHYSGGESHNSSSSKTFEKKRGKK

[4] = tested on: HT29 colon cancer cells; assay: Cell growth inhibition, Sulforhodamine B assay, HT29; type: cell-based; conditions: 5 days culture, SRB assay, read-out: Cell Line GI50 Range HT29
[5] = molecular target: T2, human PLK4 (Homo sapiens, UniProt O00444); assay: PLK4 inhibition assay (indirect ELISA); type: biochemical; conditions: GST-PLK4 4 nM, 15 μM ATP; read-out: IC50 Ranges PLK4
T2 construct: amino terminal GST fusion of residues 1-391 of human PLK4; made in house; host or cells: E. coli
T2 sequence (O00444 1-391): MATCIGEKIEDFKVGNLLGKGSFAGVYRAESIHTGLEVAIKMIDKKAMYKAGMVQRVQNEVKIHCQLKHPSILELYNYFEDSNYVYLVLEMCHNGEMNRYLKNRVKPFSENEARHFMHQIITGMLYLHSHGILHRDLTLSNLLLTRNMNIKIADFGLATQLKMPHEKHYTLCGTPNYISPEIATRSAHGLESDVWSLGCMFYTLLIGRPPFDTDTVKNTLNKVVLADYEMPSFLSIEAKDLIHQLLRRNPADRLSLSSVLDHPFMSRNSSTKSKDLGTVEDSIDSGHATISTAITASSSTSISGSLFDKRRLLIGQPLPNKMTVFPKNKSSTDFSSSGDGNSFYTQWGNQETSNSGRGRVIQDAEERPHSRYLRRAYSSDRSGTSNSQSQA
In short: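 Compounds were tested either at a single 10 μM dose or across 10-point titrations (typically 0.5 to 0.001 μM), preincubated 15 min with 4 nM GST-PLK4 (human 1-391, dephosphorylated) before 15 μM ATP was added. MBP substrate phosphorylation over 30 min, pH 7.5 HEPES/MgCl2 buffer, read by HRP/TMB ELISA (450 nm). % inhibition vs. high-activity control; IC50 by logistic fit.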

[6] = tested on: MDA-MB-231 breast cancer cells; assay: Cell growth inhibition, Sulforhodamine B assay, MDA-MB-231; type: cell-based; conditions: Homo sapiens, 120 h, 5 days culture, SRB assay, read-out: Cell Line GI50 Range MDA-MB-231
[7] = molecular target: T3, Aurora B (Homo sapiens, UniProt Q96GD4); assay: Aurora B inhibition assay (Z-Lyte); type: biochemical; conditions: 28 nM Aurora B, 128 μM ATP; read-out: IC50 Ranges Aurora B
T3 construct: purchased Invitrogen PV3970
Method: Aurora B inhibition was determined using the Z-Lyte assay kit from Invitrogen. The assay was performed using the recommended manufacturer's instructions with 128 μM ATP and 28 nM Aurora B (Invitrogen cat #PV3970). The % inhibition values were determined according to the manufacturer's directions and IC50 values were obtained using a non-linear 4 point logistic curve fit (XLfit4, IDBS)

[8] = tested on: MDA-MB-468 breast cancer cells; assay: Cell growth inhibition, Sulforhodamine B assay, MDA-MB-468; type: cell-based; conditions: 5 days culture, SRB assay, read-out: Cell Line GI50 Range MDA-MB-468

T3 sequence (Q96GD4 whole entry): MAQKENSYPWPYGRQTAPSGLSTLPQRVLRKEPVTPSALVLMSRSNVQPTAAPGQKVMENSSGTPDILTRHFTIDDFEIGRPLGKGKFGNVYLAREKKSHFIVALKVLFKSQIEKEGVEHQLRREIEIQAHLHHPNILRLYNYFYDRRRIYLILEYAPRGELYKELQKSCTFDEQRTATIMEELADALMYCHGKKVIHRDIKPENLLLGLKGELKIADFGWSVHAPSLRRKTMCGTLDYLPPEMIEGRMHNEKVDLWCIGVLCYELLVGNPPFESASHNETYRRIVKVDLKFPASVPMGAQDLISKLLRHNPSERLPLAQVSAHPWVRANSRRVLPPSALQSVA

SMILES	GI50 ([1]; Homo sapiens, HCT-116, 120 h)	GI50 ([2]; 120 h)	pIC50 [3]	GI50 ([4]; Homo sapiens, HT-29, 120 h)	pIC50 [5]	GI50 [6]	pIC50 [7]	GI50 ([8]; Homo sapiens, 120 h)	GI50 [1]	GI50 [2]	GI50 [4]	GI50 [8]
COc1ccc(NC(=O)Nc2ccc3[nH]nc(-c4ccc(OC5CCN(C)CC5)cc4)c3c2)c(C)c1 [Example A81, 1-(4-methoxy-2-methylphenyl)-3-(3-(4-((1-methylpiperidin-4-yl)oxy)phenyl)-1H-indazol-5-yl)urea]	≤ 5 µM	≤ 5 µM	≥ 5.30	≤ 5 µM	≥ 5.30	5 to 20 µM	≥ 5.30	≤ 5 µM	–	–	–	–
CN1CCC(C(NC(=O)c2ccc3[nH]nc(-c4ccc(N5CCOCC5)cc4)c3c2)c2ccccc2)CC1 (stereo not drawn) [Example A85, N-((1-methylpiperidin-4-yl)(phenyl)methyl)-3-(4-morpholinophenyl)-1H-indazole-5-carboxamide]	≤ 5 µM	≤ 5 µM	≥ 5.30	≤ 5 µM	≥ 5.30	≤ 5 µM	≥ 5.30	≤ 5 µM	–	–	–	–
CCc1cccc(CC)c1NC(=O)Nc1ccc2[nH]nc(-c3ccc(N4CCOCC4)cc3)c2c1 [Example A86, 1-(2,6-diethylphenyl)-3-(3-(4-morpholinophenyl)-1H-indazol-5-yl)urea]	≤ 5 µM	≤ 5 µM	≥ 5.30	≤ 5 µM	≥ 5.30	≤ 5 µM	≥ 5.30	≤ 5 µM	–	–	–	–
CN1CCOc2ccc(-c3n[nH]c4ccc(NC(=O)C(c5ccsc5)N5CCCC5)cc34)cc2C1 (stereo not drawn) [Example A90, N-(3-(4-methyl-2,3,4,5-tetrahydrobenzo[f][1,4]oxazepin-7-yl)-1H-indazol-5-yl)-2-(pyrrolidin-1-yl)-2-(thiophen-3-yl)acetamide]	≤ 5 µM	≤ 5 µM	≥ 5.30	≤ 5 µM	≥ 5.30	≤ 5 µM	≥ 5.30	≤ 5 µM	–	–	–	–
O=C(NC(c1ccccc1)C1CCC1)c1ccc2[nH]nc(-c3ccc(N4CCC(O)CC4)cc3)c2c1 (stereo not drawn) [Example A100, N-(cyclobutyl(phenyl)methyl)-3-(4-(4-hydroxypiperidin-1-yl)phenyl)-1H-indazole-5-carboxamide]	≤ 5 µM	≤ 5 µM	≥ 5.30	≤ 5 µM	≥ 5.30	≤ 5 µM	≥ 5.30	≤ 5 µM	–	–	–	–
O=C(Nc1ccc2[nH]nc(-c3ccc(N4CCC(O)CC4)cc3)c2c1)C(c1ccccc1)C1CC1 (stereo not drawn) [Example A103, 2-cyclopropyl-N-(3-(4-(4-hydroxypiperidin-1-yl)phenyl)-1H-indazol-5-yl)-2-phenylacetamide]	≤ 5 µM	≤ 5 µM	≥ 5.30	≤ 5 µM	≥ 5.30	≤ 5 µM	≥ 5.30	≤ 5 µM	–	–	–	–
O=C(Nc1ccc2[nH]nc(-c3ccc(NC4CCC(O)CC4)cc3)c2c1)C(c1ccsc1)N1CCCC1 (stereo not drawn) [Example A105, rel-N-(3-(4-(((1r,4r)-4-hydroxycyclohexyl)amino)phenyl)-1H-indazol-5-yl)-2-(pyrrolidin-1-yl)-2-(thiophen-3-yl)acetamide]	–	–	≥ 5.30	–	≥ 5.30	–	≥ 5.30	–	≤ 5 µM	≤ 5 µM	≤ 5 µM	≤ 5 µM
COCCN1CCC(Oc2ccc(-c3n[nH]c4ccc(NC(=O)[C@H](OC)c5ccccc5)cc34)cc2)CC1 [Example A107, (R)-2-methoxy-N-(3-(4-((1-(2-methoxyethyl)piperidin-4-yl)oxy)phenyl)-1H-indazol-5-yl)-2-phenylacetamide]	≤ 5 µM	≤ 5 µM	≥ 5.30	≤ 5 µM	≥ 5.30	5 to 20 µM	≥ 5.30	≤ 5 µM	–	–	–	–
CC(C)(O)C1CCN(c2ccc(-c3n[nH]c4ccc(NC(=O)C(c5ccsc5)N5CCCC5)cc34)cc2)CC1 (stereo not drawn) [Example A111, N-(3-(4-(4-(2-hydroxypropan-2-yl)piperidin-1-yl)phenyl)-1H-indazol-5-yl)-2-(pyrrolidin-1-yl)-2-(thiophen-3-yl)acetamide]	≤ 5 µM	≤ 5 µM	≥ 5.30	≤ 5 µM	≥ 5.30	–	≥ 5.30	≤ 5 µM	–	–	–	–
COC1CCN(c2ccc(-c3n[nH]c4ccc(NC(=O)C(c5ccsc5)N5CCCC5)cc34)cc2)CC1 (stereo not drawn) [Example A116, N-(3-(4-(4-methoxypiperidin-1-yl)phenyl)-1H-indazol-5-yl)-2-(pyrrolidin-1-yl)-2-(thiophen-3-yl)acetamide]	≤ 5 µM	≤ 5 µM	≥ 5.30	≤ 5 µM	≥ 5.30	≤ 5 µM	≥ 5.30	≤ 5 µM	–	–	–	–
O=C(NC(c1ccsc1)C1CC1)c1ccc2[nH]nc(-c3ccc(OC4CCN(CCO)CC4)cc3)c2c1 (stereo not drawn) [Example A117, N-(cyclopropyl(thiophen-3-methyl-3-yl)methyl)-3-(4-((1-(2-hydroxyethyl)piperidin-4-yl)oxy)phenyl)-1H-indazole-5-carboxamide]	≤ 5 µM	≤ 5 µM	≥ 5.30	≤ 5 µM	≥ 5.30	–	≥ 5.30	≤ 5 µM	–	–	–	–
Cc1ccccc1C(NC(=O)c1ccc2[nH]nc(-c3ccc(N4CCOCC4)cc3)c2c1)C1CC1 (stereo not drawn) [Example A119, N-(cyclopropyl(o-tolyl)methyl)-3-(4-morpholinophenyl)-1H-indazole-5-carboxamide]	≤ 5 µM	≤ 5 µM	≥ 5.30	≤ 5 µM	≥ 5.30	–	≥ 5.30	≤ 5 µM	–	–	–	–
O=C(Nc1ccc2[nH]nc(-c3ccc(N4CC(O)C4)cc3)c2c1)C(c1ccsc1)N1CCCC1 (stereo not drawn) [Example A120, N-(3-(4-(3-Hydroxyazetidin-1-yl)phenyl)-1H-indazol-5-yl)-2-(pyrrolidin-1-yl)-2-(thiophen-3-yl)acetamide]	≤ 5 µM	≤ 5 µM	≥ 5.30	≤ 5 µM	≥ 5.30	–	≥ 5.30	≤ 5 µM	–	–	–	–
